The values that follow come from US20060094763A1, “Polymorphic forms of 6-[2-(methylcarbomoyl) phenyl sulfanyl]-3-E-[2-(pyridin-2-yl)ethenyl]indazole” (Agouron Pharmaceuticals, Inc., priority 2004, published 2006).

Data set [1] in a line: Human metabolites of Compound 1. As to conditions: in vivo. From the text:
The chemical structures of three oxygenated metabolites, M12 (the sulfoxide of Compound 1), M15 (the sulfone of Compound 1) and M9 (a mixed sulfoxidized/N-oxidized product of Compound 1), were confirmed based on the comparison in chromatographic retention times and mass spectra of the in-vivo metabolites to their authentic reference standards. The chemical structure of the glucuronide (M7) of Compound 1 was confirmed by the isolation of the metabolite followed by NMR determination. […] The proposed structures (or elemental compositions) of M5 and its major fragment ions (m/z 342, 311, 265, and 237) were all highly consistent with the elemental compositions determined by accurate mass measurement (with mass measurement accuracy ≦1.2 ppm for all). The definitive structures of metabolites M8a, M12a and M14 are currently unknown.

Data set [2] is described as follows: Physical and chemical storage stability of polymorphic forms (heat, humidity). As to conditions: for Time stable: 40° C. under 75% relative humidity.
The nature of data set [3]: Aqueous solubility of polymorphic forms of Compound 1. The format is physicochemical. As to conditions: for solubility: aqueous medium.
Data set [4] is described as follows: Salt screening: solubility of in situ acid salts of Compound 1 in 100 mM acid solutions (HPLC). As to conditions: 100 mM acid solution, excess solid. As to the method: To ensure that the maximum solubility level was reached, the samples were checked periodically to ensure that excess solid was present. After 8 days 400 μL of the mixture was removed and centrifuged at 14,000 rpm for 5 minutes. 100 μL of the supernatant was then removed, diluted with 900 μL of a 1:1 mixture of acetonitrile/methanol, and then analyzed by HPLC.

In brackets after ≈: the same amount, converted by molar mass.

Consider `CNC(=O)c1ccccc1Sc1ccc2c(/C=C/c3ccccn3)n[nH]c2c1` [Compound 1, 6-[2-(methylcarbamoyl)phenylsulfanyl]-3-E-[2-(pyridin-2-yl)ethenyl]indazole], for which the Metabolism in humans entry in data set [1] is “extensive metabolism”.
Broadly, the solubility is how much of the substance goes into solution per volume. A higher solubility goes with a readily soluble substance. Broadly, the Aqueous solubility is how much of the substance goes into solution per volume. The low end stands for a poorly soluble substance, the high end for a readily soluble substance. For `CNC(=O)c1ccccc1Sc1ccc2c(/C=C/c3ccccn3)n[nH]c2c1` [Form I, 6-[2-(methylcarbamoyl)phenylsulfanyl]-3-E-[2-(pyridin-2-yl)ethenyl]indazole], the Time stable result in data set [2] is “at least 13 days”. The Chemical stability result in data set [2] (80° C.) is reported as “chemically stable”. This compound had a solubility in data set [3] (pH 2, simulated gastric fluid, pH 2) of 179 µg/mL (≈ 463 µM). The compound also came in with an Aqueous solubility in data set [3] (pH 6.5) of 9 µg/mL.
`CNC(=O)c1ccccc1Sc1ccc2c(/C=C/c3ccccn3)n[nH]c2c1` [Form IV, 6-[2-(methylcarbamoyl)phenylsulfanyl]-3-E-[2-(pyridin-2-yl)ethenyl]indazole]: the Time stable entry in data set [2] was “at least 30 days”. Moreover, the “Time physically and chemically stable” value in data set [2] (80° C.) is “at least 30 days”. Besides, the solubility in data set [3] (pH 1, simulated gastric fluid, pH 1) is about 550 µg/mL (≈ 1420 µM); in data set [3] (pH 4, aqueous buffer, pH 4), about 6 µg/mL (≈ 15.5 µM); in data set [3] (pH 8, aqueous buffer, pH 8), about 2 µg/mL (≈ 5.17 µM). In addition, the Aqueous solubility entry is listed as “about 157 μg/mL” in data set [3] (pH 2) and “about 2 μg/mL” in data set [3] (pH 6.5).
For Benzene sulfonic acid, in data set [4] (stirred 8 days in the dark), the “Solubility 8 days” value was determined as 10 µg/mL. Further, the “Solubility 14 days” value in data set [4] (stirred 14 days in the dark) is 11 µg/mL.
